US5438117A, “Hexapeptides deriving from aglucoteicoplanin and a process for preparing them” (Gruppo Lepetit S.p.A., priority 1990, dated 1995)

Key:
[1] = N. Pant et al and P. M. Booth et al; cited from earlier work
Staph. aureus (TLS) = assay: In vitro MIC, microdilution method in broth; assay type: cell-based; settings: Staph. aureus (TLS = Low Sensitive to Teicoplanin); inoculum 10^5 cfu/ml; 18-24 hours at 37° C.
Protocol: (§1) The antimicrobial activity, expressed as minimal inhibitory concentration (MIC), of the hexapeptide of formula (I), R=hydrogen, against selected strains of Gram-positive bacteria was determined in comparison with teicoplanin. The microdilution method in DIFCO TODDO-HEWITT broth (Streptococci) or OXOID ISO-SENSITEST broth (Staphylococci) was used.
(§2) TLS = Low Sensitive to Teicoplanin
(§3) *Inoculum: 10^5 cfu/ml.

Staph. epidermidis (TLS) = assay: In vitro MIC, microdilution method in broth; assay type: cell-based; settings: Staph. epidermidis (TLS = Low Sensitive to Teicoplanin); inoculum 10^5 cfu/ml; 18-24 hours at 37° C.
Protocol: as §1, §2, §3

[2] = tested on: Staph. haemolyticus clin. isolate (TLS); assay: In vitro MIC, microdilution method in broth; assay type: cell-based; settings: inoculum 10^5 cfu/ml, 18-24 hours at 37° C.
Protocol: as §1, §2, §3

Staph. aureus Tour = assay: In vitro MIC, microdilution method in broth; assay type: cell-based; settings: OXOID ISO-SENSITEST broth, inoculum 10^5 cfu/ml, 18-24 hours at 37° C.
Protocol: as §1, §3

Strep. pyogenes C 203 = assay: In vitro MIC, microdilution method in broth; assay type: cell-based; settings: DIFCO TODDO-HEWITT broth, inoculum 10^5 cfu/ml, 18-24 hours at 37° C.
Protocol: as §1, §3

[3] = tested on: Staph. epidermidis ATCC 12228; assay: In vitro MIC, microdilution method in broth; assay type: cell-based; settings: inoculum 10^5 cfu/ml, 18-24 hours at 37° C.
Protocol: as §1, §3

[4] = tested on: Entero. faecalis ATCC 7080; assay: In vitro MIC, microdilution method in broth; assay type: cell-based; settings: inoculum 10^5 cfu/ml, 18-24 hours at 37° C.
Protocol: as §1, §3

Strep. pneumoniae UC 41 = assay: In vitro MIC, microdilution method in broth; assay type: cell-based; settings: DIFCO TODDO-HEWITT broth, inoculum 10^5 cfu/ml, 18-24 hours at 37° C.
Protocol: as §1, §3

[5] = tested on: two strains of S. aureus and S. epidermidis low sensitive to teicoplanin; assay: Activity relative to teicoplanin (from MIC); assay type: cell-based
Protocol: as §1

| Substance | Biological activity [1] | MIC (Staph. aureus (TLS)) [µg/mL] | MIC (Staph. epidermidis (TLS)) [µg/mL] | MIC [2] [µg/mL] | MIC (Staph. aureus Tour) [µg/mL] | MIC (Strep. pyogenes C 203) [µg/mL] | MIC [3] [µg/mL] | MIC [4] [µg/mL] | MIC (Strep. pneumoniae UC 41) [µg/mL] | Activity compared with teicoplanin [5] |
| --- | --- | --- | --- | --- | --- | --- | --- | --- | --- | --- |
| Aglucovancomycin Hexapeptide | inactivity |  |  |  |  |  |  |  |  |  |
| aglucoteicoplanin hexapeptide [Example 1] |  | 2 | 1 | 16 | 2 | 8 | 0.5 | 8 | 4 | four to sixteen times more active |
| teicoplanin |  | 8 | 16 | 16 | 0.5 | 0.063 | 0.5 | 0.125 | 0.063 |  |
| vancomycin hexapeptide | inactivity |  |  |  |  |  |  |  |  |  |
